The values that follow come from US12448373B2, “Azetidinyl-acetamides as CXCR7 inhibitors” (CHEMOCENTRYX, INC., priority 2021, dated 2025).

T1 sequence (P25106 whole entry): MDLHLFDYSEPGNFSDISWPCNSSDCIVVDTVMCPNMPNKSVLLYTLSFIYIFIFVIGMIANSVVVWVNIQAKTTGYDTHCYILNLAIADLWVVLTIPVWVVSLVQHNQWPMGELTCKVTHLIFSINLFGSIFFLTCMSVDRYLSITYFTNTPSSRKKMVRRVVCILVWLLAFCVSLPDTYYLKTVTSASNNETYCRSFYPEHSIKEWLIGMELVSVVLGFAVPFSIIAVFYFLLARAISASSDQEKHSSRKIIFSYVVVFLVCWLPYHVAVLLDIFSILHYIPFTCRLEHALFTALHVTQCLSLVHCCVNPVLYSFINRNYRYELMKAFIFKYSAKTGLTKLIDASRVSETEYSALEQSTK

This experiment addresses T1, CXCR7 (Homo sapiens, UniProt P25106).
T1 construct: expressed in transfected cells; host or cells: CHO cells (CHO-CXCR7), transgenes maintained with Hygromycin B and G418
Kind of experiment: CXCR7 β-arrestin recruitment assay in CHO-CXCR7 cells (ProLink/EA β-galactosidase complementation), induced by human SDF-1a. The conditions noted are these: assay buffer, SDF-1a at EC50 concentration. The format is cell-based. In a few lines: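 SDF-1α-induced β-arrestin recruitment was measured by enzyme-fragment complementation (ProLink-CXCR7 with β-arrestin-EA) in stable CHO cells. Agonist was dosed at its EC50, determined the same day, alongside serially diluted compound for 1.5 h at 37 °C. Fluorogenic galactoside substrate (0.4 mM, 30 min) was read at 360/465 nm, with IC50 from 3-parameter nonlinear regression.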
For orientation: Activated receptors often draw arrestin, which recruitment assays turn into a signal.
Turning to `COc1ccc(C(C)(C)NC(=O)CC2(NC(=O)c3cc(-c4ccc(F)cc4F)on3)CN([C@H]3CC[C@](C)(O)CC3)C2)cc1` [Example 1.244], the half-inhibitory concentration (IC50) fell in the range of 1000 to 20000 nM.

`Cc1cc(C)nc(C(C)(C)NC(=O)CC2(NC(=O)c3nnc(-c4ccc(F)cc4F)s3)CN(CC(C)C)C2)n1` [Example 1.039] had an IC50 of 5 to 100 nM.

`Cn1nc(-c2ccc(F)cc2F)cc1C(=O)NC1(CC(=O)NC(C)(C)c2cccc(Cl)c2)CN([C@H]2CC[C@](C)(O)CC2)C1` [Example 1.059]: the IC50 is 1000 to 20000 nM.

`CC(C)(NC(=O)CC1(NC(=O)c2cc(-c3ccc(F)cc3F)on2)CN(C2CCC3(CC2)COC3)C1)c1ccccn1` [Example 1.294] showed an IC50 of less than 5 nM.

Turning to `COc1ccnc(C(C)(C)NC(=O)CC2(NC(=O)c3cc(-c4ccc(F)cc4F)on3)CN([C@H]3CC[C@@](C)(O)CC3)C2)c1` [Example 1.200], the IC50 was 5 to 100 nM.

As to `COc1cccc(C(C)(C)NC(=O)CC2(NC(=O)c3cc(-c4ccc(F)cc4F)on3)CN([C@H]3CC[C@@](C)(O)CC3)C2)c1F` [Example 1.195], the IC50 fell in the range of 5 to 100 nM.

The compound `Cc1cccc(C(C)(C)NC(=O)CC2(NC(=O)c3nnc(-c4ccc(F)cc4F)s3)CN(CC(C)C)C2)n1` [Example 1.027] showed an IC50 of 5 to 100 nM.

Regarding `CC(C)CN1CC(CC(=O)NC(C)(C)c2cccc(Cl)c2)(NC(=O)c2nnc(-c3ccc(F)cc3F)s2)C1` [Example 1.040], the IC50 lay within 5 to 100 nM.

In the case of `CC(C)(NC(=O)CC1(NC(=O)c2cc(-c3ccc(F)cc3F)on2)CN(C2(C)CCCCC2)C1)c1cccc(Cl)c1` [Example 1.360], the IC50 was less than 5 nM.

In turn, `CC(C)(NC(=O)CC1(NC(=O)c2cc(-c3ccc(F)cc3F)on2)CN([C@H]2CC[C@](C)(O)CC2)C1)c1cccc(C(F)(F)F)n1` [Example 1.156] returned an IC50 of less than 5 nM.

`Cc1cc(C)nc(C(C)(C)NC(=O)CC2(NC(=O)c3cc(-c4ccc(F)cc4F)n[nH]3)CN([C@H]3CC[C@@](C)(O)CC3)C2)n1` [Example 1.052] gave an IC50 of 1000 to 20000 nM.

As for `COc1cc(Cl)cc(C(C)(C)NC(=O)CC2(NC(=O)c3cc(-c4ccc(F)cc4F)on3)CN([C@H]3CC[C@@](C)(O)CC3)C2)c1` [Example 1.160], the IC50 was less than 5 nM.

`Cc1cccc(C(C)(C)NC(=O)CC2(NC(=O)c3cc(-c4ccc(F)cc4F)on3)CN([C@H]3CC[C@@](C)(O)CC3)C2)n1` [Example 1.225] displayed an IC50 of less than 5 nM.

For `CC[C@H](NC(=O)CC1(NC(=O)c2cc(-c3ccc(F)cc3F)on2)CN(C2CCCCC2)C1)c1ccccc1` [Example 1.304], the IC50 was 5 to 100 nM.

In turn, `CC(C)(NC(=O)CC1(NC(=O)c2nnc(-c3ccc(F)cc3F)s2)CN([C@H]2CC[C@](C)(O)CC2)C1)c1ncccc1F` [Example 1.022] yielded an IC50 of 5 to 100 nM.

With `Cc1ccc(C(C)(C)NC(=O)CC2(NC(=O)c3cc(-c4ccc(F)cc4F)on3)CN([C@H]3CC[C@](C)(O)CC3)C2)c(F)c1` [Example 1.247], the IC50 was in the range of 100 to 1000 nM.

For the compound `CC(C)(NC(=O)CC1(NC(=O)c2cc(-c3ccc(F)cc3F)on2)CN([C@H]2CC[C@@](C)(O)CC2)C1)c1ccnc(C#N)c1` [Example 1.161], the IC50 is 5 to 100 nM.

`CC(C)(NC(=O)CC1(NC(=O)c2cc(-c3ccc(F)cc3F)on2)CN([C@H]2CC[C@](C)(O)CC2)C1)c1cccc(C#N)c1` [Example 1.173] showed an IC50 of less than 5 nM.

`CC(C)(NC(=O)CC1(NC(=O)c2cc(-c3ccc(F)cc3F)on2)CN([C@H]2CC[C@@](C)(O)CC2)C1)c1ccc(F)c(F)c1` [Example 1.256] had an IC50 of 5 to 100 nM.

For `CC(C)(NC(=O)CC1(NC(=O)c2cc(-c3ccc(F)cc3F)on2)CN(CC2CC2)C1)c1ccccn1` [Example 1.327], the IC50 lay within 5 to 100 nM.

`CC(C)(NC(=O)CC1(NC(=O)c2cc(-c3ccc(F)cc3F)on2)CN([C@H]2CC[C@@](C)(O)CC2)C1)c1ccc(F)cc1Cl` [Example 1.252] yielded an IC50 of 5 to 100 nM.

In turn, `O=C(CC1(NC(=O)c2cc(-c3ccc(F)cc3F)on2)CN(C2CCOCC2)C1)NC1(c2ncccn2)CC1` [Example 1.328] returned a 50% inhibitory concentration (IC50) of 100 to 1000 nM.

Turning to `CC(C)(NC(=O)CC1(NC(=O)c2nnc(-c3ccc(F)cc3F)s2)CN(CC2CC2)C1)c1cccc(Cl)c1` [Example 1.038], the IC50 is 5 to 100 nM.

Regarding `CC(C)(NC(=O)CC1(NC(=O)c2nnc(-c3ccc(F)cc3F)s2)CN([C@H]2CC[C@](C)(O)CC2)C1)c1cc(Cl)cc(C#N)c1` [Example 1.345], the IC50 was 5 to 100 nM.

`CC(C)(NC(=O)CC1(NC(=O)c2cn(-c3ccc(F)cc3F)nn2)CN(C2CCCCC2)C1)c1ccccn1` [Example 1.075]: the IC50 fell in the range of 5 to 100 nM.

Turning to `Cc1cc(C(C)(C)NC(=O)CC2(NC(=O)c3cc(-c4ccc(F)cc4F)on3)CN([C@H]3CC[C@](C)(O)CC3)C2)nc(C)n1` [Example 1.079], the IC50 lay in the range of 5 to 100 nM.

As to `CC(N1CC(CC(=O)NC(C)(C)c2ccccn2)(NC(=O)c2cc(-c3ccc(F)cc3F)on2)C1)C(F)(F)F` (stereo not drawn) [Example 1.312], the IC50 lay in the range of 1000 to 20000 nM.

Compound `Cc1cc(Cl)cc(C(C)(C)NC(=O)CC2(NC(=O)c3cc(-c4ccc(F)cc4F)on3)CN([C@H]3CC[C@](C)(O)CC3)C2)n1` [Example 1.003] had an IC50 of less than 5 nM.

Take `Cc1cc(Cl)cc(C(C)(C)NC(=O)CC2(NC(=O)c3cc(-c4ccc(F)cc4F)on3)CN([C@H]3CC[C@@](C)(O)CC3)C2)c1` [Example 1.083]: the IC50 was less than 5 nM.

`Cc1cc(C)nc(C(C)(C)NC(=O)CC2(NC(=O)c3cc(-c4ccc(F)cc4F)on3)CN(C3CC(C)(C)OC(C)(C)C3)C2)n1` [Example 1.355] registered an IC50 of less than 5 nM.

Take `CC(C)(O)CCN1CC(CC(=O)NC(C)(C)c2cccc(F)c2)(NC(=O)c2cc(-c3ccc(F)cc3F)on2)C1` [Example 1.229]: the IC50 lay in the range of 5 to 100 nM.

The compound `CC(C)(NC(=O)CC1(NC(=O)c2cc(-c3ccc(F)cc3F)on2)CN([C@H]2CCC[C@@H](O)C2)C1)c1ccccn1` [Example 1.286] had an IC50 of 5 to 100 nM.

Turning to `Cc1cc(C)nc(C(C)(C)NC(=O)CC2(NC(=O)c3cc(-c4ccc(F)cc4F)on3)CN(C3CCOC3(C)C)C2)n1` (stereo not drawn) [Example 1.353], the IC50 is 100 to 1000 nM.

Compound `O=C(CC1(NC(=O)c2cc(-c3ccc(F)cc3F)on2)CN(C2CCCC2)C1)NC1(c2ncccn2)CC1` [Example 1.331] had an IC50 of 5 to 100 nM.

`C[C@@H](NC(=O)CC1(NC(=O)c2cc(-c3ccc(F)cc3F)on2)CN(CC2CC2)C1)c1ccccn1` [Example 1.323] came in with an IC50 of 100 to 1000 nM.

Compound `CC(C)CN1CC(CC(=O)NC(C)(C)c2cc(Cl)cc(Cl)c2)(NC(=O)c2cc(-c3ccc(F)cc3F)on2)C1` [Example 1.093] gave an IC50 of 5 to 100 nM.

Consider `Cc1cc(C)nc(C(C)(C)NC(=O)CC2(NC(=O)c3cc(-c4ccc(F)cc4F)on3)CN([C@H]3CC[C@](C)(O)CC3)C2)n1` [Example 1.168], for which the IC50 is less than 5 nM.

Consider `CC(C)(NC(=O)CC1(NC(=O)c2cc(-c3ccc(F)cc3F)on2)CN([C@H]2CC[C@@](C)(O)CC2)C1)c1cccc2cc[nH]c12` [Example 1.115], for which the IC50 is less than 5 nM.

Compound `COc1cc(C(C)(C)NC(=O)CC2(NC(=O)c3cc(-c4ccc(F)cc4F)on3)CN(CC(C)(C)O)C2)ccn1` [Example 1.171] displayed an IC50 of 100 to 1000 nM.

The compound `Cc1cc(C(C)(C)NC(=O)CC2(NC(=O)c3cc(-c4ccc(F)cc4F)on3)CN(CC3(O)CCC3)C2)ccn1` [Example 1.150] had an IC50 of 100 to 1000 nM.

In the case of `CC(C)(O)CN1CC(CC(=O)NC(C)(C)c2cc(F)cc(F)c2)(NC(=O)c2cc(-c3ccc(F)cc3F)on2)C1` [Example 1.137], the IC50 was 5 to 100 nM.

`C[C@]1(O)CC[C@H](N2CC(CC(=O)NC3(c4ccccn4)CC3)(NC(=O)c3cc(-c4ccc(F)cc4F)on3)C2)CC1` [Example 1.191] returned an IC50 of 5 to 100 nM.

Consider `COC[C@@H](NC(=O)CC1(NC(=O)c2cc(-c3ccc(F)cc3F)on2)CN(C2CCCCC2)C1)c1ccccc1` [Example 1.295], for which the IC50 was in the range of 100 to 1000 nM.

In turn, `CC1(CN2CC(CC(=O)NC(C)(C)c3cccc(Cl)c3)(NC(=O)c3cc(-c4ccc(F)cc4F)on3)C2)COC1` [Example 1.216] came in with an IC50 of less than 5 nM.

`CC(C)(NC(=O)CC1(NC(=O)c2nnc(-c3ccc(F)cc3F)s2)CN([C@H]2CC[C@](C)(O)CC2)C1)c1ncccn1` [Example 1.033] came in with an IC50 of 5 to 100 nM.

`CC(C)(NC(=O)CC1(NC(=O)c2cc(-c3ccc(F)cc3)on2)CN([C@H]2CC[C@@](C)(O)CC2)C1)c1ccccc1` [Example 1.089] returned an IC50 of 5 to 100 nM.

With `Cc1ccc(C(C)(C)NC(=O)CC2(NC(=O)c3cc(-c4ccc(F)cc4F)on3)CN([C@H]3CC[C@](C)(O)CC3)C2)cc1C(F)(F)F` [Example 1.262], the IC50 was in the range of 100 to 1000 nM.

The compound `Cc1cc(C(C)(C)NC(=O)CC2(NC(=O)c3cc(-c4ccc(F)cc4F)on3)CN(CC3CC3)C2)ccn1` [Example 1.114] showed an IC50 of 5 to 100 nM.

Regarding `Cc1cc(Cl)cc(C(C)(C)NC(=O)CC2(NC(=O)c3nnc(-c4ccc(F)cc4F)s3)CN([C@H]3CC[C@](C)(O)CC3)C2)n1` [Example 1.006], the IC50 is less than 5 nM.

`O=C(CC1(NC(=O)c2cc(-c3ccc(F)cc3F)on2)CN(C2CCCCC2)C1)NC1(c2ccccn2)CC1` [Example 1.306] had an IC50 of 5 to 100 nM.

Take `CC(C)(NC(=O)CC1(NC(=O)c2cc(-c3ccc(F)cc3F)on2)CN([C@H]2CC[C@@](C)(O)CC2)C1)c1ccccc1C(F)(F)F` [Example 1.292]: the IC50 was less than 5 nM.

`O=C(CC1(NC(=O)c2cc(-c3ccc(F)cc3F)on2)CN(CC2CC2)C1)NC1(c2ncccn2)CC1` [Example 1.334] yielded an IC50 of 5 to 100 nM.

`COc1ccc(F)cc1C(C)(C)NC(=O)CC1(NC(=O)c2cc(-c3ccc(F)cc3F)on2)CN([C@H]2CC[C@](C)(O)CC2)C1` [Example 1.266] showed an IC50 of less than 5 nM.

Compound `Cc1cc(C(C)(C)NC(=O)CC2(NC(=O)c3nnc(-c4ccc(F)cc4F)s3)CN([C@H]3CC[C@](C)(O)CC3)C2)ccn1` [Example 1.335] registered an IC50 of 5 to 100 nM.

Broadly, the IC50 is the point on the concentration scale where inhibition reaches its midpoint. A high value points to a need for much substance.
